According to ChEMBL document CHEMBL5512668, “Macrocyclic Azapeptide Nitriles: Structure-Based Discovery of Potent SARS-CoV-2 Main Protease Inhibitors as Antiviral Drugs” (J Med Chem, 2024):

Target: Replicase polyprotein 1ab (Severe acute respiratory syndrome coronavirus 2, UniProt P0DTD1)

| SMILES | IC50 |
| --- | --- |
| CN(C(=O)[C@H](Cc1ccccc1)NC(=O)OCc1ccccc1)N(C#N)Cc1ccc(Cl)cc1 | 260 nM |
| COc1cccc2[nH]c(C(=O)N[C@@H](Cc3ccccc3)C(=O)N(C)N(C#N)Cc3ccc(Cl)cc3)cc12 | 23 nM |
| CN(C(=O)[C@H](Cc1ccccc1)NC(=O)C1(NC(=O)c2cccs2)CC1)N(C#N)Cc1ccc(Cl)cc1 | 566 nM |
| Cc1csc(C(=O)N[C@H](C(=O)N[C@@H](Cc2ccccc2)C(=O)N(C)N(C#N)Cc2ccc(Cl)cc2)C(C)(C)C)c1 | 71 nM |
| CN(C(=O)[C@H](Cc1ccccc1)NC(=O)OCc1ccccc1)N(C#N)Cc1ccc(F)cc1 | 294 nM |
| CN(C(=O)[C@H](Cc1ccccc1)NC(=O)OCc1ccccc1)N(C#N)Cc1ccc(Br)cc1F | 104 nM |
| COc1c(Cl)cccc1CN(C#N)N(C)C(=O)[C@H](Cc1ccccc1)NC(=O)OCc1ccccc1 | 425 nM |
| CCCS(=O)(=O)N[C@H](C(=O)N[C@@H](Cc1ccccc1)C(=O)N(C)N(C#N)Cc1ccc(Cl)cc1)C(C)(C)C | 156 nM |
| CN(C(=O)[C@H](Cc1ccccc1)NC(=O)[C@@H](NC(=O)C1(F)CC1)C(C)(C)C)N(C#N)Cc1ccc(Cl)cc1 | 50 nM |
| CN(C(=O)[C@H](Cc1ccccc1)NC(=O)COc1cccc(Cl)c1)N(C#N)Cc1ccc(Cl)cc1 | 1060 nM |
| CN(C(=O)[C@H](Cc1ccccc1)NC(=O)[C@@H](Nc1ccc([N+](=O)[O-])cc1[N+](=O)[O-])C(C)(C)C)N(C#N)Cc1ccc(Cl)cc1 | 2250 nM |
| CN(C(=O)[C@H](Cc1ccccc1)NC(=O)OCc1ccccc1)N(C#N)Cc1ccccc1F | 137 nM |
| CN(C(=O)[C@H](Cc1ccccc1)NC(=O)OCc1ccccc1)N(C#N)Cc1ccccc1Cl | 149 nM |
| CN1C(=O)[C@H](Cc2ccccc2)N(C(=O)COc2ccc(Cl)cc2Cl)CCCCOc2ccc(F)cc2CN1C#N | 42 nM |
| CN(C(=O)[C@H](Cc1ccccc1)NC(=O)CNc1ccc(F)cc1F)N(C#N)Cc1ccc(Cl)cc1 | 952 nM |
| CN(C(=O)[C@H](Cc1ccccc1)NC(=O)COc1cccc2ccccc12)N(C#N)Cc1ccc(Cl)cc1 | 1060 nM |

| SMILES | IC50 |
| --- | --- |
| COc1ccc(OCC(=O)N[C@@H](Cc2ccccc2)C(=O)N(C)N(C#N)Cc2ccc(Cl)cc2)cc1 | 1230 nM |
| COc1ccc(NCC(=O)N[C@@H](Cc2ccccc2)C(=O)N(C)N(C#N)Cc2ccc(Cl)cc2)c(Cl)c1 | 673 nM |
| CN(C(=O)[C@H](Cc1ccccc1)NC(=O)OCc1ccccc1)N(C#N)Cc1c(F)cc(Br)cc1F | 81 nM |
| CN(C(=O)[C@H](Cc1ccccc1)NC(=O)CNc1ccc(F)c(F)c1)N(C#N)Cc1ccc(Cl)cc1 | 343 nM |
| CN(C(=O)[C@H](Cc1ccccc1)NC(=O)OCc1ccccc1)N(C#N)Cc1ccc([N+](=O)[O-])cc1 | 210 nM |
| CN(C(=O)[C@H](Cc1ccccc1)NC(=O)OCc1ccccc1)N(C#N)Cc1ccc(Br)cc1Cl | 143 nM |
| COc1ccc(CN(C#N)N(C)C(=O)[C@H](Cc2ccccc2)NC(=O)OCc2ccccc2)cc1 | 345 nM |
| CN(C(=O)[C@H](Cc1ccccc1)NC(=O)COc1cccc(F)c1Br)N(C#N)Cc1ccc(Cl)cc1 | 1020 nM |
| CN(C(=O)[C@H](Cc1ccccc1)NC(=O)COc1ccc(F)c(F)c1)N(C#N)Cc1ccc(Cl)cc1 | 1150 nM |
| CN(C(=O)[C@H](Cc1ccccc1)NC(=O)COc1ccc(F)cc1)N(C#N)Cc1ccc(Cl)cc1 | 1220 nM |
| CN(C(=O)[C@H](Cc1ccccc1)NC(=O)OCc1ccccc1)N(C#N)Cc1ccc(Br)c(F)c1 | 206 nM |
| CN(C(=O)[C@H](Cc1ccccc1)NC(=O)COc1ccc2c(c1)NC(=O)CC2)N(C#N)Cc1ccc(Cl)cc1 | 960 nM |
| CN1C(=O)[C@H](Cc2ccccc2)N(C(=O)COc2ccc(Cl)cc2Cl)CCCOc2ccc(F)cc2CN1C#N | 25 nM |
| CN(C(=O)[C@H](Cc1ccccc1)NC(=O)CCc1ccc(F)c(F)c1)N(C#N)Cc1ccc(Cl)cc1 | 1420 nM |
| CN(C(=O)[C@H](Cc1ccccc1)NC(=O)c1cc2cc(Cl)ccc2[nH]1)N(C#N)Cc1ccc(Cl)cc1 | 77 nM |
| CN(C(=O)[C@H](Cc1ccccc1)NC(=O)OCc1ccccc1)N(C#N)Cc1cccc(Br)c1 | 86 nM |
